Key:
planktonic cells = test: Viability of planktonic cells post-treatment in HEPES-glucose; format: cell-based
Experimental: To confirm that membrane perturbation contributed to cell death, the bacterial viability was evaluated under conditions similar to the mechanistic studies. […] The number of viable cells was lower upon treatment with VanQAmC10 (8) than when treated with VanQbiph (4) at the same concentration. […] The stronger membrane–perturbation properties of VanQAmC10 (8) therefore contribute to higher activity against both exponentially growing and stationary phase bacteria.

B. subtilis 168 = test: Acute growth retardation / physiologically effective concentration; format: cell-based; conditions: exponentially growing B. subtilis
Excerpt: The mechanisms of action in Gram-positive bacteria were further examined in the model bacterium B. subtilis. The study of the mechanism of action of a drug requires live cells under antibiotic stress. A 30–50% growth inhibition upon treatment, triggers a stress response in the bacterial cell while allowing cell proliferation to progress at a level sufficient to study the effect of the compound. The lowest concentration at which this effect was observed, was termed the physiologically effective concentration (PEC). […] The acute effect of different antibiotic concentrations on exponentially growing bacterial cultures were tested to identify the PEC (Fig. 3B–D). […] The presence of cationic lipophilic moieties possibly result in higher accumulation in the membrane region leading to growth inhibition at lower concentrations. […]
Determination of Physiologically Effective Concentration7
Overnight cultures of B. subtilis 168 were grown in 50 mL flasks with 10 mL of media. Upon growing to mid-log phase (an OD500 between 0.5 and 1), bacteria was inoculated in 100mL BMM in a 500 ml flask. When the cultures reach an OD500 of 0.35, the bacteria is aliquoted into separate conicals (50 mL) with 5 ml and compounds are added. The O.D. of the solutions are recorded every 30 minutes. The concentration which retards the growth of bacteria was selected as the PEC. The experiments were performed two times independently and the images are representative of results from two independent experiments. The experiment was done together with the compound published in (J. Med. Chem. 64, 2021, 10185) and therefore the graph for vancomycin is the same. […]
Overnight bacterial cultures were inoculated in BMM and allowed to grow to an OD 500 of 0.35. 200 µL of the bacterial culture were incubated with compounds at 37 ̊C for 15 minutes. […]
BAC Light assay or pore formation assay
0.35. 500 µL of the bacteria was then incubated with the compounds at their respective PECSs for 10 mins in the same media at 37 ̊C. The compound was then centrifuged at 13200 rpm and […]

MRSA = test: Membrane permeabilization assay, propidium iodide uptake; format: cell-based, S. aureus
Experimental: The kinetics of permeabilization of membranes of MRSA and B. subtilis by the compounds was measured by the uptake of propidium iodide (PI). […] When the membrane integrity is compromised, it enters the cell and fluoresces upon binding to the DNA. Both VanQbiph (4) and VanQAmC10 (8) permeabilized the membrane in a concentration-dependent manner (Fig. S2 ^†). […] They caused gradual permeabilization against the stationary phase cells of MRSA as well (Fig. 2F). The extent of permeabilization was higher for VanQAmC10 (8) than VanQbiph (4) against both the log-phase and stationary-phase bacteria similar to that observed during depolarisation.
50 μL of serially diluted compound was added into 96 well microtiter plates. Freshly drawn, heparanized human blood was centrifuged down to obtain the erythrocytes and re-suspended to 5 vol % in PBS (pH 7.4). 150 μL of the erythrocyte suspension was added to the serially diluted compounds (from 500 µM to 2 µM). One set without compound and other with 50 μL of 1 vol % solution of Triton X-100 were kept as controls. […] 100 μL of the supernatant from each well were transferred into fresh microtiter plates, and A540 was measured.
% haemolysis = (A - A0)/(Atotal -A0) × 100, where A is the absorbance of the test well, A 0 the absorbance of the negative controls (without compound), and A total the absorbance of 100 % hemolysis wells (with Triton X -100), all at 540 nm. […]
2 h post incubation with dye, the absorbance was measured at 570 nm using 600 nm as […]
The bactericidal activity of the compounds was evaluated with the time kill kinetics assay.
MRSA ATCC 33591 cells were cultured in nutrient media at 37°C for 6 h. […] The bacterial colonies were counted and results are represented in logarithmic scale, i.e. log10 (CFU/mL). […]
were added to it the wells containing bacterial suspension. Fluorescence has monitored at excitation wavelength of 535 nm (slit width: 10 nm) and emission wavelength of 617 nm (slit width: 5 nm). As a measure of inner membrane permeabilization the uptake of PI was monitor by the increase in fluorescence for 30-50 min. […]

SMILES	reduction in viable cells (planktonic cells; 5 μM) [log CFU mL^−1]	reduction in viable cells (planktonic cells; 10 μM) [log CFU mL^−1]	concentration showing growth retardation (inhibitory effect from) (B. subtilis 168) [µM]	effect on membrane integrity (PI uptake) (MRSA)	time to membrane permeabilization (MRSA; exponentially growing MRSA, 10 μM, PI uptake) [min]	effect on viable cells (planktonic cells; 40 μM)
CNC(CC(C)C)C(=O)NC1C(=O)NC(CC(N)=O)C(=O)NC2C(=O)NC3C(=O)NC(C(=O)NC(C(=O)NCCC[N+](C)(C)Cc4ccc(-c5ccccc5)cc4)c4cc(O)cc(O)c4-c4cc3ccc4O)C(O)c3ccc(c(Cl)c3)Oc3cc2cc(c3OC2OC(CO)C(O)C(O)C2OC2CC(C)(N)C(O)C(C)O2)Oc2ccc(cc2Cl)C1O (centres unmarked) [VanQbiph (4)]	0.8	2.2	0.2	slower permeabilization	–	–
CCCCCCCCCCNC(=O)C[N+](C)(C)CCCNC(=O)C1NC(=O)C2NC(=O)C(NC(=O)C3NC(=O)C(CC(N)=O)NC(=O)C(NC(=O)C(CC(C)C)NC)C(O)c4ccc(c(Cl)c4)Oc4cc3cc(c4OC3OC(CO)C(O)C(O)C3OC3CC(C)(N)C(O)C(C)O3)Oc3ccc(cc3Cl)C2O)c2ccc(O)c(c2)-c2c(O)cc(O)cc21 (centres unmarked) [VanQAmC10 (8)]	2	4	0.125	–	≤ 4	–
CN[C@H](CC(C)C)C(=O)N[C@H]1C(=O)N[C@@H](CC(N)=O)C(=O)N[C@H]2C(=O)N[C@H]3C(=O)N[C@H](C(=O)N[C@H](C(=O)O)c4cc(O)cc(O)c4-c4cc3ccc4O)[C@H](O)c3ccc(c(Cl)c3)Oc3cc2cc(c3O[C@@H]2O[C@H](CO)[C@@H](O)[C@H](O)[C@H]2O[C@H]2C[C@](C)(N)[C@H](O)[C@H](C)O2)Oc2ccc(cc2Cl)[C@H]1O [Vancomycin, reference compound]	–	–	0.4	does not affect the membrane integrity	–	did not reduce the viability of bacteria

From publication PMC9977398, “Next-generation membrane-active glycopeptide antibiotics that also inhibit bacterial cell division” (Chemical Science, 2023)
